Converted amounts (≈) assume the structure as drawn. “And” between values parts separate entries of the source, which are not always exact repeats. Equal entries are not always repeated. Where two headings read alike, the source gives them in different places.
What was measured:
[1] = general statement, not tested in Example 7; cited from earlier work
[2] = Nitrosopyrrolidine formation in treated and untreated fried bacon, thermal energy analysis (TEA); details: for Level of nitrosopyrrolidine (NPy) detected in fried bacon: duplicate; for Reduction of nitrosopyrrolidine relative to untreated fried bacon: treated vs untreated fried bacon; for Level of reduction of nitrosopyrrolidine compared with tocopherol: vs positive control 500 ppm tocopherol
Method: (§1) Several base pickle solutions were prepared in tap water using the following proportions of ingredients: 2.0% sodium tripolyphosphate; 2.5% sucrose, 0%, 0.20% or 0.55% sodium erythorbate; 0.12% or 0.20% sodium nitrite; and 17.0% sodium chloride. Each ingredient was added to the water in the order given and completely dissolved before adding the next ingredient. The desired amount of ascorbyl or erythorbyl laurate was added to selected base solutions as follows. A dispersion or ascorbyl or erythorbyl laurate and Tween 20 was prepared by slurrying 2 parts of Tween 20 and 5 parts of ascorbyl or erythorbyl laurate, hydrating the slurry with a small amount of the base pickle solution and vigorously agitating the hydrated slurry for 10 min to break up the large agglomerates that formed. […] The resultant mixture was homogenized 2 times at 1000 psi in a single-stage homogenizer to give the final pickle solution. The pickle solution was chilled to about 40° F. immediately after preparation and used to prepare the bacon on the day of preparation. Duplicate pork bellies of about 10 lbs weight were stitch-pumped using each of the various concentrations of control or laurate treated cooled, agitated pickle solutions. […] The combined bacon slices from each belly were analyzed for dimethylnitrosamine and nitrosopyrrolidine using standard procedures and a TEA analyzer.

[3] = Dimethylnitrosamine formation in treated and untreated fried bacon, thermal energy analysis (TEA); details: duplicate
Method: as §1

[4] = Equilibrium oil-water solubility and phase distribution coefficient; format: physicochemical; details: for Total solubility (in words): oil and water; for Total Solubility: oil plus water phase; for solubility: vegetable oil/water, stirred overnight
Method: The oil and water layers were separated by centrifugation at 10,000 rpm for 30 min. Any undissolved ester was removed by gravity filtration through fluted filter paper. The oil and water layers were assayed for ester using 0.01N I2 solution.

[5] = Mayonnaise storage test: color, odor and freshness; details: three months at room temperature; 200 ppm in the vegetable oil
Method: In an electric beater, 20 g of egg yolks, 1.2 g of dry mustard, 3.0 g of salt, and 10 ml of vinegar are combined and well beaten; 144 g of vegetable oil (such as cottonseed, corn, or sesame) which contains 200 ppm (0.02%) of ascorbyl or erythorbyl laurate is then added with constant whipping, and beating is continued until there is complete emulsification and no free oil remains. An additional 10 ml of vinegar is added and the beating is continued for a few minutes longer until the emulsion is smooth and of a semi-solid consistency. The resultant mayonnaise is packed in jars and capped.
After three months of storage at room temperature, the color, odor and freshness of the treated mayonnaise are evaluated against similarly stored, untreated mayonnaise and against freshly prepared mayonnaise.

[6] = Emollient lotion accelerated stability test; details: accelerated stability tests of Example 3
Method: (§2) Using an accelerated stability test at 63° C. this hand creme is compared to a similarly prepared hand creme containing no erythorbyl laurate. After one month of storage at 63° C., the color, appearance and odor of both hand cremes are evaluated against freshly prepared control hand creme.
An oil phase consisting of 70 g of mineral oil, 30 g of lanolin, and 30 g of glycerol monostearate and heated to 75° C. is added to a water phase consisting of 15 g triethanolamine, 200 mg of erythorbyl caprate, and 849 ml of water, also at 75° C. After thoroughly mixing the oil and water phases at 75° C., the emulsion is cooled to 45° C. and perfumed. After cooling to room temperature the emulsion is homogenized to give the emollient lotion.
Using the accelerated stability tests of Example 3 the treated emollient lotion is compared to a similarly prepared, untreated emollient lotion.

[7] = Hand creme accelerated stability test at 63° C., color, appearance and odor by test panel; details: one month at 63° C.
Method: (§3) A hand creme is prepared by mixing a water phase at 70° C. with an oil phase at 75° C. The oil phase consists of 2.0 g of isopropyl myristate, 2.0 g of cetyl alcohol, 15.0 g of stearic acid, 2.0 g of lanolin, and 20.0 mg of erythorbyl laurate. The water phase consists of 71.6 ml of deionized water, 3.0 g of glycerol, 3.0 g of 70% sorbitol, and 1.4 g of triethanolamine. After thoroughly mixing the oil and water phases, the emulsion is cooled to 45° C. at which time the appropriate perfumes are added and mixed thoroughly into the emulsion. After cooling the emulsion to room temperature, the resultant hand creme is placed in an opaque glass jar and sealed.
as §2

[8] = Bologna storage test: panel comparison of color, odor and flavor; details: stored at 36°-40° F. for 1 month
Method: (§4) In a large mixer there are combined 60 lb of whole carcass beef which has been ground through a 1/4" plate, 40 lb of regular pork trimmings which has been ground through a 3/8" plate, 2 lb 12 oz of salt, 8 oz of sugar, 4 oz of ground white pepper, 1 oz of coriander, 1 oz of mace, 0.85 oz of sodium erythorbate, 0.25 oz of sodium nitrite, and 1.00 oz of erythorbyl laurate. 25 lb of chopped ice is added and the mixture is cycled through a mechanical emulsifier until the desired texture is attained. The finished emulsion is transferred to a casing stuffer and stuffed into a No. 8 by 36 in. fibrous casing. The resultant product is ready for smoking, which will require approximately 8 hrs. The product is placed in a smokehouse at 130° F. with the damper open and cooked for 30 min. The damper is then closed and the temperature is raised 10° F./hr to 170° F. The heating is continued at 170° F. until an internal temperature of 156° F. is reached. The resultant bologna is cold showered with tap water for 35 to 40 min, held at room temperature for 30 min, and placed in a cooler at 36°-40° F. This procedure will produce bolognas of approximately 18 lb with a 15 in. circumference.
The treated bologna is sliced, wrapped and stored at 36°-40° F. for 1 month and its color, odor and flavor are compared to a similarly prepared and stored, untreated bologna.

[9] = Corn flakes storage test: rancid and painty taste; details: six months at room temperature; 0.005% by weight, aqueous spray
Method: In a cylindrical pressure cooker are placed about 1700 pounds of degermed and debranned, No. 4-5 milled, hybrid yellow corn and 36 gallons of flavoring syrup composed of sugar, malt, salt and water. The mixture is cooked at 18 psi steam pressure for about 11/2 hours to produce a moisture content of about 33%. Uniform translucency of the kernels will indicate an adequate cook. The kernels are crushed and dried to about 21% moisture. The dried, crushed grits are then heat tempered at 180° F. for 16 hours in order to evenly distribute the water content. The cooked, dried grits are flaked using a conventional flake roller and are passed directly to the toasting oven where they are heated at 575° F. for 50 seconds to produce the finished flakes of less than 3% moisture content. As they cool, they are treated with an aqueous spray of B-complex vitamins and 0.005% by weight erythorbyl laurate relative to the final corn flakes weight. The treated, finished flakes are placed in paper boxes with waxed paper liners.
Treated and untreated flakes are stored six months at room temperature and then compared.

[10] = Hand creme N-nitrosamine analysis by TEA
Method: as §3
Portions of the hand cremes described above may be analyzed for N-nitrosamines using a Thermal Energy Analyzer (TEA) and standard procedures.

[11] = Bologna N-nitrosamine analysis by TEA
Method: as §4
The two bolognas may be analyzed for N-nitrosamines using standard procedures and a TEA analyzer.

[12] = 120 ppm NaNO2, 200 ppm NaEr only (null control)
[13] = 200 ppm NaNO2, 200 ppm NaEr only
[14] = organic solvent or mixture, read-out: Oil Phase Solubility
[15] = read-out: Water Phase Solubility
[16] = 120 ppm NaNO2, 550 ppm NaEr + 500 ppm AL, listed as AL
[17] = 120 ppm NaNO2, 550 ppm NaEr + 500 ppm EL

Compound: COc1ccc(O)c(C(C)(C)C)c1 [BHA]
- Distribution coefficient (oil/water) (in words) [1]: essentially infinity
- Water solubility (in words) [1]: water-insoluble

Compound: Cc1cc(C(C)(C)C)c(O)c(C(C)(C)C)c1 [BHT]
- Distribution coefficient (oil/water) (in words) [1]: essentially infinity
- Water solubility (in words) [1]: water-insoluble

Compound: O=C1O[C@H]([C@H](O)CO)C(O)=C1O [NaEr, sodium erythorbate, reference compound]
- Level of nitrosopyrrolidine (NPy) detected in fried bacon [2, 12]: 4.2 ppb and 3.3 ppb
- Level of nitrosopyrrolidine (NPy) detected in fried bacon [2, 13]: 3.6 ppb and 3.9 ppb
- Level of dimethylnitrosamine (DMNA) detected in fried bacon [3, 12]: 1.0 ppb and 1.2 ppb
- Level of dimethylnitrosamine (DMNA) detected in fried bacon ([3]; 120 ppm NaNO2, 550 ppm NaEr only (null control)): trace (Trace means less than 1 ppb)
- Level of dimethylnitrosamine (DMNA) detected in fried bacon [3, 13]: 2.1 ppb and 1.6 ppb

Compound: CC(C)(C)c1cc(O)ccc1O [TBHQ]
- Distribution coefficient (oil/water) (in words) [1]: essentially infinity
- Water solubility (in words) [1]: water-insoluble

Compound: CCCCCCCCCC(=O)OC[C@H](O)[C@H]1OC(=O)C(O)=C1O [ascorbyl caprate, reference compound]
- Total solubility (in words) ([4]; Example 7): high total solubility
- Total Solubility [4]: 5400 ppm
- Distribution coefficient (in words) ([4]; oil/water, Example 7): very low distribution coefficient
- solubility [4, 14]: 100 µg/mL (≈ 303 µM)
- solubility [4, 15]: 5300 µg/mL (≈ 16000 µM)

Compound: CCCCCCCCCCCC(=O)OC[C@H](O)[C@H]1OC(=O)C(O)=C1O [ascorbyl laurate]
- Level of nitrosopyrrolidine (NPy) detected in fried bacon [2, 16]: 1.4 ppb and 2.4 ppb
- Reduction of nitrosopyrrolidine relative to untreated fried bacon [2]: approximately four
- Level of reduction of nitrosopyrrolidine compared with tocopherol [2]: about the same
- Total Solubility [4]: 390 ppm
- solubility [4, 14]: 250 µg/mL (≈ 697 µM)
- solubility [4, 15]: 140 µg/mL (≈ 391 µM)
- Level of dimethylnitrosamine (DMNA) detected in fried bacon [3, 16]: 2.7 ppb and 1.7 ppb
- Level of dimethylnitrosamine (DMNA) detected in fried bacon ([3]; 200 ppm NaNO2, 550 ppm NaEr + 500 ppm AL, listed as AL): 1.6 ppb and 2.6 ppb
- Objectionable change in color, odor and freshness of mayonnaise [5]: substantially less objectionable change

Compound: CCCCCCCCCCCCCCCC(=O)OC[C@H](O)[C@H]1OC(=O)C(O)=C1O [ascorbyl palmitate, reference compound]
- Total solubility (in words) ([4]; Example 7): low total solubility
- Total Solubility [4]: 175 ppm
- solubility [4, 14]: 110 µg/mL (≈ 265 µM)
- solubility [4, 15]: 65 µg/mL (≈ 157 µM)

Compound: CCCCCCCCCC(=O)OC[C@@H](O)[C@H]1OC(=O)C(O)=C1O [erythorbyl caprate]
- Total Solubility [4]: 4000 ppm
- solubility [4, 14]: 1500 µg/mL (≈ 4540 µM)
- solubility [4, 15]: 2500 µg/mL (≈ 7570 µM)
- Degradation relative to untreated emollient lotion [6]: substantially less degradation

Compound: CCCCCCCCCCCC(=O)OC[C@@H](O)[C@H]1OC(=O)C(O)=C1O [erythorbyl laurate]
- Objectionable change in color, appearance and odor relative to untreated hand creme [7]: substantially less objectionable change
- Objectionable change in color, odor and flavor relative to untreated bologna [8]: substantially less objectionable change
- Level of nitrosopyrrolidine (NPy) detected in fried bacon [2, 17]: trace (Trace means less than 1 ppb)
- Level of nitrosopyrrolidine (NPy) detected in fried bacon ([2]; 200 ppm NaNO2, 550 ppm NaEr + 500 ppm EL): trace (Trace means less than 1 ppb)
- Reduction of nitrosopyrrolidine relative to untreated fried bacon [2]: approximately four
- Level of reduction of nitrosopyrrolidine compared with tocopherol [2]: about the same
- Total Solubility [4]: 700 ppm
- solubility [4, 14]: 450 µg/mL (≈ 1260 µM)
- solubility [4, 15]: 350 µg/mL (≈ 976 µM)
- Rancid and painty taste relative to untreated flakes [9]: insignificant rancid and painty taste
- Levels of N-nitrosamines relative to untreated hand creme [10]: substantially reduced levels of N-nitrosamines
- Levels of N-nitrosamines relative to untreated bologna [11]: substantially reduced levels of N-nitrosamines
- Level of dimethylnitrosamine (DMNA) detected in fried bacon ([3]; 120 ppm NaNO2, 550 ppm NaEr + 250 ppm EL, listed as EL): 1.2 ppb and 1.7 ppb
- Level of dimethylnitrosamine (DMNA) detected in fried bacon [3, 17]: trace (Trace means less than 1 ppb)
- Level of dimethylnitrosamine (DMNA) detected in fried bacon ([3]; 120 ppm NaNO2, 995 ppm EL, no NaEr, listed as EL): 1.2 ppb and 1.0 ppb
- Level of dimethylnitrosamine (DMNA) detected in fried bacon ([3]; 200 ppm NaNO2, 550 ppm NaEr + 250 ppm EL): 2.0 ppb
- Level of dimethylnitrosamine (DMNA) detected in fried bacon ([3]; 200 ppm NaNO2, 550 ppm NaEr + 500 ppm EL, listed as EL): 1.3 ppb and 1.9 ppb
- Level of dimethylnitrosamine (DMNA) detected in fried bacon ([3]; 200 ppm NaNO2, 995 ppm EL, no NaEr, listed as EL): 2.2 ppb and 1.7 ppb
- Objectionable change in color, odor and freshness of mayonnaise [5]: substantially less objectionable change

Compound: tocopherol [reference compound]
- Level of nitrosopyrrolidine (NPy) detected in fried bacon ([2]; 120 ppm NaNO2, 550 ppm NaEr + 500 ppm TOC (positive control)): none detected (Limit of detection is 0.2 ppb)
- Distribution coefficient (oil/water) (in words) [1]: essentially infinity

From patent US4251563A, “Compositions containing N-nitrosamine formation or oxidation inhibitors and the use thereof” (Pfizer Inc., priority 1979, dated 1981)
